US4508663A, “Process for preparing thiosulfenamide derivatives of N-phosphonomethylglycinonitriles” (Monsanto Company, priority 1983, dated 1985)

Experiments:
Test in all cases: post-emergence herbicidal activity, greenhouse
Type in all cases: in vivo
Velvetleaf = system: Velvetleaf
Text: (§1) A good grade of top soil is placed in aluminum pans having holes in the bottom and compacted to a depth of 0.95 to 1.27 cm. from the top of the pan. A predetermined number of seeds of each of several dicotyledonous and monocotyledonous annual plant species and/or vegetative propagules for the perennial plant species are placed on the soil and pressed into the soil surface. The seeds and/or vegetative propagules are covered with soil and leveled. The pans are then placed on a sand bench in the greenhouse and watered from below as needed. After the plants reach the desired age (two to three weeks), each pan except for the control pans is removed individually to a spraying chamber and sprayed by means of an atomizer operating at a positive air pressure of approximately 1.46 kg/cm^2 absolute. The atomizer contains 6 ml. of a solution or suspension of the chemical. In that 6 ml., is an amount of a cyclohexanone emulsifying agent mixture to give a spray solution or suspension which contains about 0.4% by weight of the emulsifier. The spray solution or suspension contains a sufficient amount of the candidate chemical in order to give application rates corresponding to those set forth in the tables. The spray solution is prepared by taking an aliquot of a 1.0% by weight stock solution or suspension of the candidate chemical in an organic solvent such as acetone or tetrahydrofuran or in water. The emulsifying agent employed is a mixture comprising 35 weight percent butylamine dodecylbenzene sulfonate and 65 weight percent of a tall oil ethylene oxide condensate having about 11 moles of ethylene oxide per mole of tall oil. The pans are returned to the greenhouse and watered as before and the injury to the plants as compared to the control is observed at approximately two and four weeks as indicated in the tables under WAT and the results recorded. In some instances, the two-week observations are omitted.
(§2) The post-emergence herbicidal activity index used in Table I is as follows: […]

Downy Brome = system: Downy Brome
Text: as §1, §2

Lambsquarters = system: Lambsquarters
Text: as §1, §2

Barnyardgrass = system: Barnyardgrass
Text: as §1, §2

Johnsongrass = settings: Table I
Text: as §1, §2

Quackgrass = settings: Table I
Text: as §1, §2

Panicum Spp = settings: Table II, 4 WAT
Text: as §1, §2

Soybean = settings: Table II, 4 WAT
Text: as §1, §2

Yellow Nutsedge = settings: Table I
Text: as §1, §2

Rice = settings: Table II, 4 WAT
Text: as §1, §2

Wheat = settings: Table II, 4 WAT
Text: as §1, §2

Canada Thistle = settings: Table I
Text: as §1, §2

Sorghum = settings: Table II, 4 WAT
Text: as §1, §2

Cocklebur = system: Cocklebur
Text: as §1, §2

Crabgrass = settings: Table II, 4 WAT
Text: as §1, §2

Hemp Sesbania = settings: Table II, 4 WAT
Text: as §1, §2

Smartweed = system: Smartweed
Text: as §1, §2

Sugar Beet = settings: Table II, 4 WAT
Text: as §1, §2

Wild Buckwheat = settings: Table II, 4 WAT
Text: as §1, §2

Morningglory = system: Morningglory
Text: as §1, §2

SMILES: N#CCN(CP(=O)(Oc1ccccc1)Oc1ccccc1)SSc1cccc(C(F)(F)F)c1 [IV, Phosphonic acid, [[(cyanomethyl)[[3-(trifluoromethyl)phenyl]dithio]amino]methyl]-, diphenyl ester]
- post-emergence herbicidal activity index (Velvetleaf; Table I, 2 WAT, 5.6 kg/h): 0 (0-24% control)
- post-emergence herbicidal activity index (Velvetleaf; Table I, 2 WAT, 11.2 kg/h): 0 (0-24% control)
- post-emergence herbicidal activity index (Velvetleaf; Table I, 4 WAT, 5.6 kg/h): 1 (25-49% control)
- post-emergence herbicidal activity index (Velvetleaf; Table I, 4 WAT, 11.2 kg/h): 1 (25-49% control)
- post-emergence herbicidal activity index (Velvetleaf; Table II, 4 WAT, 1.12 kg/h): 0 (0-24% control)
- post-emergence herbicidal activity index (Velvetleaf; Table II, 4 WAT, 5.6 kg/h): 1 (25-49% control)
- post-emergence herbicidal activity index (Downy Brome; Table I, 2 WAT, 5.6 kg/h): 1 (25-49% control)
- post-emergence herbicidal activity index (Downy Brome; Table I, 2 WAT, 11.2 kg/h): 0 (0-24% control)
- post-emergence herbicidal activity index (Downy Brome; Table I, 4 WAT, 5.6 kg/h): 1 (25-49% control)
- post-emergence herbicidal activity index (Downy Brome; Table I, 4 WAT, 11.2 kg/h): 2 (50-74% control)
- post-emergence herbicidal activity index (Downy Brome; Table II, 4 WAT, 1.12 kg/h): 0 (0-24% control)
- post-emergence herbicidal activity index (Downy Brome; Table II, 4 WAT, 5.6 kg/h): 1 (25-49% control)
- post-emergence herbicidal activity index (Lambsquarters; Table I, 2 WAT, 5.6 kg/h): 3 (75-99% control)
- post-emergence herbicidal activity index (Lambsquarters; Table I, 2 WAT, 11.2 kg/h): 3 (75-99% control)
- post-emergence herbicidal activity index (Lambsquarters; Table I, 4 WAT, 5.6 kg/h): 3 (75-99% control)
- post-emergence herbicidal activity index (Lambsquarters; Table I, 4 WAT, 11.2 kg/h): 4 (100% control)
- post-emergence herbicidal activity index (Lambsquarters; Table II, 4 WAT, 1.12 kg/h): 2 (50-74% control)
- post-emergence herbicidal activity index (Lambsquarters; Table II, 4 WAT, 5.6 kg/h): 4 (100% control)
- post-emergence herbicidal activity index (Barnyardgrass; Table I, 2 WAT, 5.6 kg/h): 2 (50-74% control)
- post-emergence herbicidal activity index (Barnyardgrass; Table I, 2 WAT, 11.2 kg/h): 2 (50-74% control)
- post-emergence herbicidal activity index (Barnyardgrass; Table I, 4 WAT, 5.6 kg/h): 2 (50-74% control)
- post-emergence herbicidal activity index (Barnyardgrass; Table I, 4 WAT, 11.2 kg/h): 2 (50-74% control)
- post-emergence herbicidal activity index (Barnyardgrass; Table II, 4 WAT, 1.12 kg/h): 0 (0-24% control)
- post-emergence herbicidal activity index (Barnyardgrass; Table II, 4 WAT, 5.6 kg/h): 3 (75-99% control)
- post-emergence herbicidal activity index (Johnsongrass; 2 WAT, 5.6 kg/h): 2 (50-74% control)
- post-emergence herbicidal activity index (Johnsongrass; 2 WAT, 11.2 kg/h): 1 (25-49% control)
- post-emergence herbicidal activity index (Johnsongrass; 4 WAT, 5.6 kg/h): 3 (75-99% control)
- post-emergence herbicidal activity index (Johnsongrass; 4 WAT, 11.2 kg/h): 1 (25-49% control)
- post-emergence herbicidal activity index (Quackgrass; 2 WAT, 5.6 kg/h): 1 (25-49% control)
- post-emergence herbicidal activity index (Quackgrass; 2 WAT, 11.2 kg/h): 0 (0-24% control)
- post-emergence herbicidal activity index (Quackgrass; 4 WAT, 5.6 kg/h): 2 (50-74% control)
- post-emergence herbicidal activity index (Quackgrass; 4 WAT, 11.2 kg/h): 0 (0-24% control)
- post-emergence herbicidal activity index (Panicum Spp; 1.12 kg/h): 0 (0-24% control)
- post-emergence herbicidal activity index (Panicum Spp; 5.6 kg/h): 2 (50-74% control)
- post-emergence herbicidal activity index (Soybean; 1.12 kg/h): 1 (25-49% control)
- post-emergence herbicidal activity index (Soybean; 5.6 kg/h): 1 (25-49% control)
- post-emergence herbicidal activity index (Yellow Nutsedge; 2 WAT, 5.6 kg/h): 1 (25-49% control)
- post-emergence herbicidal activity index (Yellow Nutsedge; 2 WAT, 11.2 kg/h): 1 (25-49% control)
- post-emergence herbicidal activity index (Yellow Nutsedge; 4 WAT, 5.6 kg/h): 2 (50-74% control)
- post-emergence herbicidal activity index (Yellow Nutsedge; 4 WAT, 11.2 kg/h): 2 (50-74% control)
- post-emergence herbicidal activity index (Rice; 1.12 kg/h): 0 (0-24% control)
- post-emergence herbicidal activity index (Rice; 5.6 kg/h): 2 (50-74% control)
- post-emergence herbicidal activity index (Wheat; 1.12 kg/h): 0 (0-24% control)
- post-emergence herbicidal activity index (Wheat; 5.6 kg/h): 1 (25-49% control)
- post-emergence herbicidal activity index (Canada Thistle; 2 WAT, 5.6 kg/h): 1 (25-49% control)
- post-emergence herbicidal activity index (Canada Thistle; 2 WAT, 11.2 kg/h): 1 (25-49% control)
- post-emergence herbicidal activity index (Canada Thistle; 4 WAT, 5.6 kg/h): 2 (50-74% control)
- post-emergence herbicidal activity index (Canada Thistle; 4 WAT, 11.2 kg/h): 1 (25-49% control)
- post-emergence herbicidal activity index (Sorghum; 1.12 kg/h): 2 (50-74% control)
- post-emergence herbicidal activity index (Sorghum; 5.6 kg/h): 3 (75-99% control)
- post-emergence herbicidal activity index (Cocklebur; Table I, 2 WAT, 5.6 kg/h): 1 (25-49% control)
- post-emergence herbicidal activity index (Cocklebur; Table I, 2 WAT, 11.2 kg/h): 2 (50-74% control)
- post-emergence herbicidal activity index (Cocklebur; Table I, 4 WAT, 5.6 kg/h): 2 (50-74% control)
- post-emergence herbicidal activity index (Cocklebur; Table I, 4 WAT, 11.2 kg/h): 2 (50-74% control)
- post-emergence herbicidal activity index (Cocklebur; Table II, 4 WAT, 1.12 kg/h): 1 (25-49% control)
- post-emergence herbicidal activity index (Cocklebur; Table II, 4 WAT, 5.6 kg/h): 3 (75-99% control)
- post-emergence herbicidal activity index (Crabgrass; 1.12 kg/h): 3 (75-99% control)
- post-emergence herbicidal activity index (Crabgrass; 5.6 kg/h): 3 (75-99% control)
- post-emergence herbicidal activity index (Hemp Sesbania; 1.12 kg/h): 0 (0-24% control)
- post-emergence herbicidal activity index (Hemp Sesbania; 5.6 kg/h): 1 (25-49% control)
- post-emergence herbicidal activity index (Smartweed; Table I, 2 WAT, 5.6 kg/h): 0 (0-24% control)
- post-emergence herbicidal activity index (Smartweed; Table I, 2 WAT, 11.2 kg/h): 1 (25-49% control)
- post-emergence herbicidal activity index (Smartweed; Table I, 4 WAT, 5.6 kg/h): 0 (0-24% control)
- post-emergence herbicidal activity index (Smartweed; Table I, 4 WAT, 11.2 kg/h): 4 (100% control)
- post-emergence herbicidal activity index (Smartweed; Table II, 4 WAT, 1.12 kg/h): 1 (25-49% control)
- post-emergence herbicidal activity index (Smartweed; Table II, 4 WAT, 5.6 kg/h): 2 (50-74% control)
- post-emergence herbicidal activity index (Sugar Beet; 1.12 kg/h): 0 (0-24% control)
- post-emergence herbicidal activity index (Sugar Beet; 5.6 kg/h): 0 (0-24% control)
- post-emergence herbicidal activity index (Wild Buckwheat; 1.12 kg/h): 0 (0-24% control)
- post-emergence herbicidal activity index (Wild Buckwheat; 5.6 kg/h): 2 (50-74% control)
- post-emergence herbicidal activity index (Morningglory; Table I, 2 WAT, 5.6 kg/h): 1 (25-49% control)
- post-emergence herbicidal activity index (Morningglory; Table I, 2 WAT, 11.2 kg/h): 1 (25-49% control)
- post-emergence herbicidal activity index (Morningglory; Table I, 4 WAT, 5.6 kg/h): 3 (75-99% control)
- post-emergence herbicidal activity index (Morningglory; Table I, 4 WAT, 11.2 kg/h): 2 (50-74% control)
- post-emergence herbicidal activity index (Morningglory; Table II, 4 WAT, 1.12 kg/h): 1 (25-49% control)
- post-emergence herbicidal activity index (Morningglory; Table II, 4 WAT, 5.6 kg/h): 2 (50-74% control)
